Experimental findings from publication PMC11528023, “Transport mechanism and structural pharmacology of human urate transporter URAT1” (Cell Research, 2024) are described below.

Positions count from the first letter of the chain named.

In assay [1] the target is T1, URAT1WT (Homo sapiens, UniProt Q96S37).
T1 construct: expressed in transfected cells; host or cells: HEK293 cells (ATCC, CRL-3216), transient transfection with Lipofectamine 3000
T1 sequence (Q96S37 1-553): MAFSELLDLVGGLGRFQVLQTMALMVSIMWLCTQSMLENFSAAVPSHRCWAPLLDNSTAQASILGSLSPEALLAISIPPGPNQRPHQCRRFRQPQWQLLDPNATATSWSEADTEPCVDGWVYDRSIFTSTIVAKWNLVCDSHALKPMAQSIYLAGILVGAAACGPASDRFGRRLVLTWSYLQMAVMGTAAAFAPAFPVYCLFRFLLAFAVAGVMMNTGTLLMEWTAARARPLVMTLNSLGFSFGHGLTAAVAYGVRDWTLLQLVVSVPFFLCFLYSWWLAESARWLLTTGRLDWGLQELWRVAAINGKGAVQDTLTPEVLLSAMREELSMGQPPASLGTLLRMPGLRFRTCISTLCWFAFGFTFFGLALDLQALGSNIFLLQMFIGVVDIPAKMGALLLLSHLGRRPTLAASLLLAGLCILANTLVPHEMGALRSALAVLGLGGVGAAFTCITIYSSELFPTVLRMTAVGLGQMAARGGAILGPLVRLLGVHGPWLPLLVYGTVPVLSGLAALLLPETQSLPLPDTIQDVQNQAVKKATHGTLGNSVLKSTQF
In words: Anion preloading 14C-urate uptake assay, WT URAT1. The class given is cell-based. Conditions: Fig. 4e, f, NaCl uptake buffer.

The target of a further assay is T2, URAT1 Q473E (Homo sapiens, UniProt Q96S37, Q473E).
T2 construct: expressed in transfected cells; host or cells: HEK293 cells (ATCC, CRL-3216), transient transfection
T2 sequence (Q96S37 1-553 Q473E): T1 sequence (Q96S37 1-553) with Q473E
The assay can be described thus: Anion preloading 14C-urate uptake assay, URAT1 Q473E. The format is cell-based. The settings on record: Fig. 4e, f; Site 1 mutant.

In assay [2] the target is T1, URAT1WT. The assay can be described thus: 14C-urate uptake inhibition in HEK293 cells expressing WT URAT1. The class given is cell-based. The protocol: (§1) Data are shown as mean ± SD; n = 3 biological replicates. In a, b, uptake buffer: 20 mM HEPES pH 7.4, 125 mM sodium gluconate, 4.8 mM potassium gluconate, 1.2 mM monobasic potassium phosphate, 1.2 mM magnesium sulfate, 1.3 mM calcium gluconate, and 5.6 mM glucose. c Cryo-EM density maps of URAT1 in the apo and substrate-bound states. […] Putative lipid densities are in light cyan. d Cryo-EM density maps of URAT1 in the drug-bound states. […] Putative lipid densities are in light cyan. e Diagram of URAT1 topology. ECD, extracellular domain. f Structure of URAT1 in the apo state. g Slice view of URAT1 in the apo state, showing the central cavity and opening to the intracellular side.
(§2) Human embryonic kidney (HEK) 293 cells (ATCC, CRL-3216) were seeded onto poly(D-lysine)-coated 96-well plates at a density of 0.3 × 10^5 cells per well and cultured at 37 °C until reaching approximately 70%–80% confluence. The cells were transiently transfected with plasmids encoding the URAT1 WT or mutants using Lipofectamine 3000 (Invitrogen, L3000001), following the manufacturer’s protocol. The transfected cells were cultured at 37 °C for 12 h. Following this, 10 mM sodium butyrate was added, and the cells were further incubated at 30 °C for an additional 24 h. […]

The next assay concerns the target T3, URAT1EM (Homo sapiens, UniProt Q96S37, A280P/A304R/A323S/A335R/D313K/DEL311-312/DEL60-62/G295A/G309E/G331A/G338L/G65T/I63V/INS307H/L287I/L292P/L321M/L328V/L337V/L341F/L64S/M324V/M330S/M343V/P317I/P333E/Q332K/R291K/R301K/R325K/R342C/S329A/T288I/T289K/T314N/T339D/W294Q/W300R).
T3 construct: human URAT1 (residues 3–553), a (GGGGS)3 linker, and C-terminal DARPinoff7; expressed in transfected cells; host or cells: HEK293 cells (ATCC, CRL-3216), transient transfection
T3 sequence (Q96S37 with tags, fused parts or gaps DEL60-62/I63V/L64S/G65T/A280P/L287I/T288I/T289K/R291K/L292P/W294Q/G295A/W300R/R301K/A304R/INS307H/G309E/DEL311-312/D313K/T314N/P317I/L321M/A323S/M324V/R325K/L328V/S329A/M330S/G331A/Q332K/P333E/A335R/L337V/G338L/T339D/L341F/R342C/M343V): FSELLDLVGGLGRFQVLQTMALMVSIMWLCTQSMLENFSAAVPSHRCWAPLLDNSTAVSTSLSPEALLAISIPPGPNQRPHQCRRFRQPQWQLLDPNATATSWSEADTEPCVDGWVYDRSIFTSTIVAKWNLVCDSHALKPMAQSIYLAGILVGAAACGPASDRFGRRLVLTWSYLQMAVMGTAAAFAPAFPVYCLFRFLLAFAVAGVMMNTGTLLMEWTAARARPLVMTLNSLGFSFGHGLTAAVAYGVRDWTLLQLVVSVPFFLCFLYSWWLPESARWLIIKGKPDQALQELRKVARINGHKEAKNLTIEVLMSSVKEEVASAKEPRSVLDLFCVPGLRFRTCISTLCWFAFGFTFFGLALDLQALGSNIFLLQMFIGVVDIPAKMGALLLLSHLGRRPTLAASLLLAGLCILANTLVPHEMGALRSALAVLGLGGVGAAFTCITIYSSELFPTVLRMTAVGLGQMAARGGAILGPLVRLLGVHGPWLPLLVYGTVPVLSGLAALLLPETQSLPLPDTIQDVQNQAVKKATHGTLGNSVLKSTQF
In words: 14C-urate uptake in HEK293 cells expressing URAT1EM (cryo-EM construct). The class given is cell-based. The settings on record: read-out: IC50 for URAT1EM. The protocol: as §1, §2

The target of assay [3] is human URAT1 tagged with MBP and DARPin, with part of the intracellular loop (residues 280-343) replaced by OAT4 residues 277-339 (human) (UniProt Q96S37). The assay can be described thus: cryo-EM particle images; purified protein at the high concentration used to prepare cryo-EM grids; particles seen on the grids (Supplementary Fig. S1b).
For the next assay, the target named is T4, URAT1 (Homo sapiens, UniProt Q96S37).
T4 construct: expressed in transfected cells; host or cells: HEK293 cells (ATCC, CRL-3216), transient transfection with Lipofectamine 3000
T4 sequence (Q96S37 1-553): T1 sequence (Q96S37 1-553)
The assay can be described thus: Effect of reducing anion gradients on 14C-urate uptake. The format is cell-based. Conditions: 125 mM sodium phosphate in place of sodium gluconate in uptake buffer, Fig. S12b. The protocol:
Human embryonic kidney (HEK) 293 cells (ATCC, CRL-3216) were seeded onto poly(D-lysine)-coated 96-well plates at a density of 0.3 × 10^5 cells per well and cultured at 37 °C until reaching approximately 70%–80% confluence. The cells were transiently transfected with plasmids encoding the URAT1 WT or mutants using Lipofectamine 3000 (Invitrogen, L3000001), following the manufacturer’s protocol. The transfected cells were cultured at 37 °C for 12 h. Following this, 10 mM sodium butyrate was added, and the cells were further incubated at 30 °C for an additional 24 h. The medium was aspirated, and the cells were rinsed once with assay buffer (20 mM HEPES pH 7.4, 125 mM sodium gluconate, 4.8 mM potassium gluconate, 1.2 mM monobasic potassium phosphate, 1.2 mM magnesium sulfate, 1.3 mM calcium gluconate, and 5.6 mM glucose) and then incubated with 400 µM urate consisted of 80 µM ^14C-radiolabeled (50–60 mCi/mmol, 0.5 mCi/mL, American Radiolabeled Chemicals, Inc.) and 320 µM non-radiolabeled in assay buffer at 37 °C for 20 min. In some experiments, 125 mM sodium gluconate was replaced by sodium chloride, sulfate, or phosphate. […] The cells were then lysed in 0.1 M NaOH, and the lysed samples were added to scintillation liquid to measure radioactivity using a PerkinElmer Microbeta2 counter. […]

By IC50 is commonly meant the concentration at which inhibition is half-maximal. For orientation: stoichiometry N means a count of units in the complex or per binding partner.

Turning to `O=C(O)c1cnccn1` [Pyrazinoate, pyrazinoate], the “Potentiation in urate uptake by anion preloading (fold change), WT” value at URAT1WT [1] worked out at 3.5 fold. Besides, the “Potentiation in urate uptake by anion preloading (fold change), Q473E” value on URAT1 Q473E was found to be 1.2 fold.

As for `CC(C)(Sc1ccncc1-c1ccc(C#N)c2ccccc12)C(=O)O` [verinurad], the 50% inhibitory concentration (IC50) on URAT1WT [2] turned out to be 53 nM; on URAT1EM, 63 nM.

Consider “human URAT1 tagged with MBP and DARPin, with part of the intracellular loop (residues 280-343) replaced by OAT4 residues 277-339 (from UniProt Q96S37 1-279; Q9NSA0 277-339; Q96S37 344-553)”, for which the stoichiometry N in assay [3] turned out to be 2.

In the case of phosphate, the “Impact on URAT1 function (14C-urate uptake)” value at URAT1 is recorded as “minimal impact”.
